Test results: patent publication US20250002460A1, “SORTILIN INHIBITORS” (SORTINA PHARMA AB, priority 2021, published 2025)

molecular target: T1, human sortilin (sSORT) (Homo sapiens, UniProt Q99523); assay: Neurotensin competitive fluorescence polarization binding assay (FPA); conditions: mean IC50 values for sortilin inhibitors, IC50 (nM), 100 nM sSORT, 10 nM Neurotensin-Ahx-FITC, 1 h room temperature
T1 sequence (Q99523 78-756 limits assumed): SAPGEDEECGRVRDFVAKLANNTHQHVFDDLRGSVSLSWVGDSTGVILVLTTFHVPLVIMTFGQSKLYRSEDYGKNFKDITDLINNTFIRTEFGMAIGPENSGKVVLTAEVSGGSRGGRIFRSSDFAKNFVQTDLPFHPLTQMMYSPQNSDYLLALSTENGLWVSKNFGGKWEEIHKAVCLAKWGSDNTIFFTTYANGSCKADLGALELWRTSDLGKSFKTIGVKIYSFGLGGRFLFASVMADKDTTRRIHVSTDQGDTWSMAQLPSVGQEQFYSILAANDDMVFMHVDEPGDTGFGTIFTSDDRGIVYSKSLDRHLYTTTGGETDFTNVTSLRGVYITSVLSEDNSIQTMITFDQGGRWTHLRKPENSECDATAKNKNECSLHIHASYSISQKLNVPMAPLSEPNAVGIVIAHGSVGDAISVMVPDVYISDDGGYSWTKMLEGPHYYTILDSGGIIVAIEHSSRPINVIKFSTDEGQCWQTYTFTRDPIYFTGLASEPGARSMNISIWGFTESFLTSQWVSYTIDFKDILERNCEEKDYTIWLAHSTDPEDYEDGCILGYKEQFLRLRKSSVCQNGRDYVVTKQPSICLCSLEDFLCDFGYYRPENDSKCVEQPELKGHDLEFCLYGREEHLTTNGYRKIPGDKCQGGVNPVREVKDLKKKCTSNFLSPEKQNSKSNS
Method: Fresh 0.1% bovine serum albumin (BSA) was added to the assay buffer to obtain the final concentration: 50 mM HEPES, pH 7.4; 100 mM NaCl; 2.0 mM CaCl2; 0.1% BSA; 0.1% TWEEN® 20. The sortilin inhibitors of the invention and reference compounds (see Table 1) analyzed in the screen and neurotensin (used as an assay control) were serially diluted in ten different concentrations in assay buffer. In each well of a Nunc® MaxiSorp™ 384-well plate (Sigma Aldrich), 100 nM sSORT was mixed with pre-diluted sortilin inhibitors and 10 nM Neurotensin-Ahx-FITC in assay buffer adjusted to contain 1% DMSO in a final volume of 20 μl. The plate was then briefly centrifuged prior to 1 h incubation at room temperature in the dark.

Molecule	IC50
Cc1nc(N(C)C)ncc1C(=O)NC(/C=C/C(C)(C)C)C(=O)O (single isomer, unassigned) [SI1 (active enantiomer), (E)-2-[2-(dimethylamino)-4-methyl-5-pyrimidinylcarbonylamino]-5,5-dimethyl-3-hexenoic acid]	9 nM
CC(C)(C)/C=C/C(NC(=O)c1cccc(-n2cnnc2)n1)C(=O)O (stereo not shown) [SI50, (E)-5,5-dimethyl-2-[6-(4H-1,2,4-triazol-4-yl)-2-pyridylcarbonylamino]-3-hexenoic acid]	668 nM
CC(C)(C)/C=C/C(NC(=O)C1CN(c2ccccn2)CCN1)C(=O)O (single isomer, unassigned) [SI3 diastereomer 1, (E)-5,5-dimethyl-2-[4-(2-pyridyl)-2-piperazinylcarbonylamino]-3-hexenoic acid]	135 nM
CC(C)(C)/C=C/C(NC(=O)c1ccc(Oc2ccc(Cl)cc2)cc1)C(=O)O (stereo not shown) [SI53, (E)-2-[p-(p-chlorophenoxy)benzoylamino]-5,5-dimethyl-3-hexenoic acid]	148 nM
CC(C)(C)/C=C/C(NC(=O)c1ccc(Oc2cccnc2)cc1)C(=O)O (stereo not shown) [SI34, (E)-5,5-dimethyl-2-[p-(3-pyridyloxy)benzoylamino]-3-hexenoic acid]	56 nM
CC(C)Cc1cc(C(=O)NC(/C=C/C(C)(C)C)C(=O)O)n(C)n1 (stereo not shown) [SI9, (E)-2-(3-isobutyl-1-methyl-5-pyrazolylcarbonylamino)-5,5-dimethyl-3-hexenoic acid]	102 nM
CC(C)(C)/C=C/C(NC(=O)c1ccc(Cl)[nH]1)C(=O)O (stereo not shown) [SI29, (E)-2-(5-chloro-2-pyrrolylcarbonylamino)-5,5-dimethyl-3-hexenoic acid]	80 nM
CC(C)(C)/C=C/C(NC(=O)c1cccc(-c2cccs2)c1)C(=O)O (stereo not shown) [SI52, (E)-5,5-dimethyl-2-[m-(2-thienyl)benzoylamino]-3-hexenoic acid]	31 nM
CC(C)(C)/C=C/C(NC(=O)C1CN(c2ccccn2)CCN1)C(=O)O (single isomer, unassigned) [SI3 diastereomer 2, (E)-5,5-dimethyl-2-[4-(2-pyridyl)-2-piperazinylcarbonylamino]-3-hexenoic acid]	339 nM
CC(C)(C)/C=C/C(NC(=O)C1CN(c2ccncc2)CCN1)C(=O)O (single isomer, unassigned) [SI4 diastereomer 2, (E)-5,5-dimethyl-2-[4-(4-pyridyl)-2-piperazinylcarbonylamino]-3-hexenoic acid]	912 nM
CC(C)(C)CC[C@H](NC(=O)c1ccc(Oc2ccccc2)nc1)C(=O)O [RC2 (active enantiomer), (S)-5,5-dimethyl-2-(6-phenoxynicotinoylamino)hexanoic acid, reference compound]	28 nM
CN(C)c1ncc(C(=O)NC(/C=C/C(C)(C)C)C(=O)O)cn1 (stereo not shown) [SI17, (E)-2-[2-(dimethylamino)-5-pyrimidinylcarbonylamino]-5,5-dimethyl-3-hexenoic acid]	149 nM
CC(C)(C)/C=C/C(NC(=O)c1ccc(COc2ccccc2)cc1)C(=O)O (stereo not shown) [SI55, (E)-5,5-dimethyl-2-[p-(phenoxymethyl)benzoylamino]-3-hexenoic acid]	116 nM
CC(C)(C)/C=C/C(NC(=O)C1CN(c2ccncc2)CCN1)C(=O)O (single isomer, unassigned) [SI4 diastereomer 1, (E)-5,5-dimethyl-2-[4-(4-pyridyl)-2-piperazinylcarbonylamino]-3-hexenoic acid]	229 nM
Cn1nc(Cl)cc1C(=O)NC(/C=C/C(C)(C)C)C(=O)O (stereo not shown) [SI57, (E)-2-(3-chloro-1-methyl-5-pyrazolylcarbonylamino)-5,5-dimethyl-3-hexenoic acid]	45 nM
Cc1nc(N(C)C)ncc1C(=O)NC(CCC(C)(C)C)C(=O)O (stereo not shown) [RC1, 2-[2-(dimethylamino)-4-methyl-5-pyrimidinylcarbonylamino]-5,5-dimethylhexanoic acid, reference compound]	123 nM
CC(C)(C)/C=C/C(NC(=O)c1cnc(Oc2ccccc2)nc1)C(=O)O (stereo not shown) [SI44, (E)-5,5-dimethyl-2-(2-phenoxy-5-pyrimidinylcarbonylamino)-3-hexenoic acid]	158 nM
CC(C)(C)/C=C/C(NC(=O)c1cc(Br)c[nH]1)C(=O)O (stereo not shown) [SI28, (E)-2-(4-bromo-2-pyrrolylcarbonylamino)-5,5-dimethyl-3-hexenoic acid]	55 nM
CN(C)c1nccc(C(=O)NC(/C=C/C(C)(C)C)C(=O)O)n1 (stereo not shown) [SI19, (E)-2-[2-(dimethylamino)-4-pyrimidinylcarbonylamino]-5,5-dimethyl-3-hexenoic acid]	851 nM
CCn1nc(CC(C)C)cc1C(=O)NC(/C=C/C(C)(C)C)C(=O)O (stereo not shown) [SI56, (E)-2-(1-ethyl-3-isobutyl-5-pyrazolylcarbonylamino)-5,5-dimethyl-3-hexenoic acid]	95 nM
Cc1cc(C(=O)NC(/C=C/C(C)(C)C)C(=O)O)nc(N(C)C)n1 (stereo not shown) [SI20, (E)-2-[2-(dimethylamino)-6-methyl-4-pyrimidinylcarbonylamino]-5,5-dimethyl-3-hexenoic acid]	1000 nM
Cn1nc(C(=O)NC(/C=C/C(C)(C)C)C(=O)O)cc1-c1ccc(Cl)c(Cl)c1 (stereo not shown) [SI61, (E)-2-[5-(3,4-dichlorophenyl)-1-methyl-3-pyrazolylcarbonylamino]-5,5-dimethyl-3-hexenoic acid]	117 nM
CC(C)(C)/C=C/C(NC(=O)c1cccc(-n2cnnc2)c1)C(=O)O (stereo not shown) [SI6, (E)-5,5-dimethyl-2-[m-(4H-1,2,4-triazol-4-yl)benzoylamino]-3-hexenoic acid]	62 nM
CC(C)(C)/C=C/C(NC(=O)c1ccc(Oc2cccc(Cl)c2)cc1)C(=O)O (stereo not shown) [SI54, (E)-2-[p-(m-chlorophenoxy)benzoylamino]-5,5-dimethyl-3-hexenoic acid]	158 nM
Cn1cc(Cl)cc1C(=O)NC(/C=C/C(C)(C)C)C(=O)O (stereo not shown) [SI31, (E)-2-(4-chloro-1-methyl-2-pyrrolylcarbonylamino)-5,5-dimethyl-3-hexenoic acid]	71 nM
Cc1cc2[nH]c(C(=O)NC(/C=C/C(C)(C)C)C(=O)O)cc2cn1 (stereo not shown) [SI7, (E)-5,5-dimethyl-2-(6-methyl-1H-1,5-diazainden-2-ylcarbonylamino)-3-hexenoic acid]	89 nM
Cn1nc(-c2cccnc2)cc1C(=O)NC(/C=C/C(C)(C)C)C(=O)O (stereo not shown) [SI59, (E)-5,5-dimethyl-2-[1-methyl-3-(3-pyridyl)-5-pyrazolylcarbonylamino]-3-hexenoic acid]	316 nM
CC(C)(C)/C=C/C(NC(=O)c1ccc(C(=O)C(F)(F)F)cc1)C(=O)O (stereo not shown) [SI2, (E)-5,5-dimethyl-2-[p-(2,2,2-trifluoroacetyl)benzoylamino]-3-hexenoic acid]	234 nM
CC(C)(C)/C=C/C(NC(=O)c1ccc(Oc2ccccc2)nc1)C(=O)O (single isomer, unassigned) [SI (active enantiomer), (E)-5,5-dimethyl-2-(6-phenoxynicotinoylamino)-3-hexenoic acid]	5 nM
CC(C)(C)/C=C/C(NC(=O)c1ccc(-n2cnnc2)cc1)C(=O)O (stereo not shown) [SI23, (E)-5,5-dimethyl-2-[p-(4H-1,2,4-triazol-4-yl)benzoylamino]-3-hexenoic acid]	158 nM

same assay, conditions: read-out: mean IC50 values for sortilin inhibitors, IC50; 100 nM sSORT, 10 nM Neurotensin-Ahx-FITC, 1 h room temperature

Molecule	IC50
(E)-2-(2-isopropyl-4-methyl-5-pyrimidinylcarbonylamino)-5,5-dimethyl-3-hexenoic acid [SI49]	68 nM
